In patent US20250382556A1, “MODULATION OF THE BRANCHED-CHAIN METABOLITE CONTENT OF FRUITS AND VEGETABLES” (BOARD OF TRUSTEES OF MICHIGAN STATE UNIVERSITY, priority 2024, published 2025):

Test system: apple peel tissues
Test: Labeled (1,2-13C2) acetate and methanol feeding of excised apple peel
Parameters: species or system Malus x domestica Borkh.
Details: for reduction of methyl 2-methylbutanoate content: 1 mM rimsulfuron
Method: Acetate feedings were likewise performed with excised peel tissues in 22-mL glass vials and 20 μL of treatment solution. ‘Gala’ fruit were fed with 10 mM methanol, 10 mM acetate (unlabeled or 1,2-^13C2) pH 7 balanced with KOH, 0.05% Tween 20, and 0.5 mM rimsulfuron if appropriate. These concentrations were doubled for ‘Empire’ and ‘Jonagold’ fruit.
Headspace volatiles from small tissue samples incubated in 22 mL vials were adsorbed for 30 s using a solid-phase micro extraction (SPME) fiber (65 μm PDMS-DVB; Supelco Analytical). The SPME fiber was then directly desorbed for 1 min in the injection port of a gas chromatograph (GC; HP-6890, Hewlett-Packard) coupled to a time-of-flight mass spectrometer (MS; Pegasus II, LECO). Whole fruits and banana slices were incubated for 20 min at room temperature (22° C.) in 1-L sealed Teflon jars before a 15-s, or 3-min adsorption and 1- or 2-min desorption. Adsorption times were adjusted to ensure instrument responses were in the linear range. All desorbed volatiles were cryofocused at the beginning of the column by immersing said region of the column in liquid nitrogen. After the desorption period, the run was initiated and the liquid nitrogen removed.
The conditions of the system were as follows. Injection port: 200° C., splitless, ultra-purified helium (99.999%) carrier gas, front inlet flow 1.5 mL·min^−1 constant, 10 mL·min^−1 purge flow, 11.5 mL·min^−1 total flow. Oven: initial temperature 40° C. for 0 min, ramped by 43° C.·min^−1 to 185° C. for 0 min. Column: HP-5 MS, 30 m×0.25 mm i.d., 0.25 μm film thickness (Agilent). Transfer line temperature 225° C. MS: Electron ionization (−70 eV), ion source temperature 200° C., solvent delay 50 sec, m/z range 29 to 400, detector voltage 1500 V, data collection rate 20 Hz.

CCS(=O)(=O)c1cccnc1S(=O)(=O)NC(=O)Nc1nc(OC)cc(OC)n1 [rimsulfuron, N-((4,6-dimethoxypyrimidin-2-yl)aminocarbonyl)-3-(ethylsulfonyl)-2-pyridinesulfonamide]
M+1 and M+2 methyl pentanoate isotopologs collectively more enriched after treatment (Empire and Jonagold, on average, 1,2-13C2 acetate): 4.28 fold
reduction of methyl 2-methylbutanoate content (Empire peel fed methanol and acetate): 99.4%
reduction of methyl 2-methylbutanoate content (Jonagold peel fed methanol and acetate): 100%
enrichment of M+1 isotopolog of methyl hexanoate (Jonagold, 1,2-13C2 acetate): slightly more enrichment than controls
